Reference: patent publication US7795456B2, “Insecticidal N-substituted sulfoximines” (Dow AgroSciences LLC, priority 2004, dated 2010)
Like-named read-outs stand apart in the source and are kept apart here.

Legend:
[1] = tested on: fruit fly (Drosophila melanogaster)
[2] = tested on: beet armyworm (Spodoptera exigua)
[3] = tested on: cotton aphid (Aphis gossypii); test: Insecticidal test for cotton aphid, foliar spray on squash; settings: for pest or weed control at 50 ppm / pest or weed control at 200 ppm: Aphis gossypii, foliar, 72 h; for pest or weed control at 50 ppm: read-out: CA 50: % control at 50 ppm against cotton aphid in foliar spray tests; for pest or weed control at 200 ppm: read-out: CA 200: % control at 200 ppm against cotton aphid in foliar spray tests; for % Control at ppm, against cotton aphid: 0.195: 0.195 ppm
[4] = tested on: beet armyworm (Spodoptera exigua); test: Insecticidal test for beet armyworm in injection assays; settings: 1 h, read-out: BAW SYM: % showing intoxicated symptoms at 10 μg/larva against beet armyworm in injection tests
[5] = tested on: yellow fever mosquito (Aedes aegypti) larvae; test: whole plant or invertebrate; type: in vivo; settings: 72 h, read-out: YFM 26: % control at 26 ppm against yellow fever mosquito in submerge tests
[6] = tested on: corn earworm (Helicoverpa zea)
[7] = tested on: sweet potato whitefly (Bemisia tabaci); test: Insecticidal test for sweet potato whitefly, foliar spray on cotton; settings: Bemisia tabaci, in Gossypium hirsutum, foliar, read-out: SPW 200: % control at 200 ppm against sweet potato whitefly in foliar spray tests
[8] = tested on: green peach aphid (Myzus persicae); test: Insecticidal test for green peach aphid, foliar spray on cabbage seedlings; settings: for % Control at ppm, against green peach aphid: 0.78: 0.78 ppm; for % Control at ppm, against green peach aphid: 3.12: 3.12 ppm
[9] = 50 μg/cm2, second-instar larvae, 5 days
[10] = 12.5 ppm, rundown assay, 3 days

Structure (SMILES)	FF 25: % mortality at 25 μg/cm2 against fruit fly in dietary tests ([1]; 25 μg/cm2, 48 h)	BAW 50: % mortality at 50 μg/cm2 against beet armyworm in dietary tests [2, 9]	pest or weed control at 50 ppm [3] [%]	pest or weed control at 200 ppm [3] [%]	pest or weed control at 0.01 mg [4] [%]	pest or weed control at 26 ppm [5] [%]	CEW 50: % mortality at 50 μg/cm2 against corn earworm in dietary tests [6, 9]	also measured
N#CN=S1(=O)CCCC1Cc1cnc(Cl)s1 (stereo not shown) [Compound 11, 2-[(2-chloro-1,3-thiazol-5-yl)methyl]-1-oxidotetrahydro-1H-1λ^4-thien-1-ylidenecyanamide]	D (60-69)	G (Inactive)	90 to 100	90 to 100	60 to 69	90 to 100	G (Inactive)	–
N#CN=S1(=O)CCCC1 [Compound 12, 1-Oxidotetrahydro-1H-1λ^4-thien-1-ylidenecyanamide]	–	–	90 to 100	90 to 100	90 to 100	–	–	FF 25: % mortality at 25 μg/cm2 against fruit fly in dietary tests ([1]; in vivo): D (key: A: 90-100; B: 80-89; C: 70-79; D: 60-69; E: 50-59; F: Less than 50; G: Inactive; H: Not tested); FF SYM: % showing intoxicated symptoms at 25 μg/cm2 against fruit fly in dietary tests ([1]; in vivo): A (key: A: 90-100; B: 80-89; C: 70-79; D: 60-69; E: 50-59; F: Less than 50; G: Inactive; H: Not tested); BAW 50: % mortality at 50 μg/cm2 against beet armyworm in dietary tests ([2]; in vivo): F (key: A: 90-100; B: 80-89; C: 70-79; D: 60-69; E: 50-59; F: Less than 50; G: Inactive; H: Not tested); % Control at ppm, against cotton aphid: 0.78 ([3]; in vivo): E (key: A: 90-100; B: 80-89; C: 70-79; D: 60-69; E: 50-59; F: Less than 50; G: Inactive; H: Not tested); % Control at ppm, against cotton aphid: 3.12 ([3]; in vivo): E (key: A: 90-100; B: 80-89; C: 70-79; D: 60-69; E: 50-59; F: Less than 50; G: Inactive; H: Not tested); % Control at ppm, against cotton aphid: 12.5 ([3]; in vivo): A (key: A: 90-100; B: 80-89; C: 70-79; D: 60-69; E: 50-59; F: Less than 50; G: Inactive; H: Not tested); % Control at ppm, against cotton aphid: 50 ([3]; in vivo): A (key: A: 90-100; B: 80-89; C: 70-79; D: 60-69; E: 50-59; F: Less than 50; G: Inactive; H: Not tested); pest or weed control at 200 ppm [7]: 80 to 89%; CEW 50: % mortality at 50 μg/cm2 against corn earworm in dietary tests ([6]; in vivo): D (key: A: 90-100; B: 80-89; C: 70-79; D: 60-69; E: 50-59; F: Less than 50; G: Inactive; H: Not tested); % Control at ppm, against green peach aphid: 12.5 ([8]; in vivo): F (key: A: 90-100; B: 80-89; C: 70-79; D: 60-69; E: 50-59; F: Less than 50; G: Inactive; H: Not tested); % Control at ppm, against green peach aphid: 50 ([8]; in vivo): F (key: A: 90-100; B: 80-89; C: 70-79; D: 60-69; E: 50-59; F: Less than 50; G: Inactive; H: Not tested)
N#CN=S1(=O)CCCC1Cc1ccc(Cl)nc1 (stereo not shown) [Compound 14]	F (Less than 50)	G (Inactive)	90 to 100	90 to 100	–	90 to 100	G (Inactive)	–
CS(=O)(=NC#N)C(Cc1ccccc1)c1ccc(Cl)nc1 (stereo not shown) [Compound 27]	G (Inactive)	G (Inactive)	90 to 100	90 to 100	–	80 to 89	G (Inactive)	–
CC[S@@](=O)(C[C@H](C)c1ccc(Cl)nc1)=NC#N [Compound 16]	G (Inactive)	G (Inactive)	90 to 100	90 to 100	< 50	–	G (Inactive)	–
CS(=O)(=NC#N)C(F)c1ccc(Cl)nc1 (stereo not shown) [Compound 25]	C (70-79)	G (Inactive)	90 to 100	90 to 100	–	90 to 100	G (Inactive)	FF SYM: % showing intoxicated symptoms at 25 μg/cm2 against fruit fly in dietary tests ([1]; 25 μg/cm2, 4 h): B (80-89)
CC(Cc1ccc(Cl)nc1)CS(C)(=O)=N[N+](=O)[O-] (stereo not shown) [Compound 3, 2-chloro-5-(2-methyl-3-{methyl(oxido)[oxido-(oxo)hydrazono]-λ^4-sulfanyl}propyl)pyridine]	G (Inactive)	G (Inactive)	–	80 to 89	–	–	G (Inactive)	–
CS(=O)(CCc1ccc(Cl)nc1)=NC#N (stereo not shown) [Compound 13]	G (Inactive)	G (Inactive)	90 to 100	90 to 100	< 50	–	G (Inactive)	% Control at ppm, against cotton aphid: 0.195 ([3]; rundown assay): F (Less than 50); % Control at ppm, against cotton aphid: 0.78 ([3]; 0.78 ppm, rundown assay): A (90-100); % Control at ppm, against cotton aphid: 3.12 ([3]; 3.12 ppm, rundown assay): A (90-100); % Control at ppm, against cotton aphid: 12.5 ([3]; 12.5 ppm, rundown assay): A (90-100); % Control at ppm, against cotton aphid: 50 ([3]; 50 ppm, rundown assay): A (90-100); pest or weed control at 200 ppm [7]: 90 to 100%; % Control at ppm, against green peach aphid: 0.78 ([8]; rundown assay, 3 days): F (Less than 50); % Control at ppm, against green peach aphid: 3.12 ([8]; rundown assay, 3 days): C (70-79); % Control at ppm, against green peach aphid: 12.5 [8, 10]: C (70-79); % Control at ppm, against green peach aphid: 50 ([8]; 50 ppm, rundown assay, 3 days): B (80-89)
CC(c1ccc(Cl)nc1)S(C)(=O)=N[N+](=O)[O-] (stereo not shown) [Compound 36]	F (Less than 50)	G (Inactive)	90 to 100	90 to 100	–	–	G (Inactive)	FF SYM: % showing intoxicated symptoms at 25 μg/cm2 against fruit fly in dietary tests ([1]; 25 μg/cm2, 4 h): F (Less than 50); % Control at ppm, against cotton aphid: 0.049 ([3]; 0.049 ppm, rundown assay): F (Less than 50); % Control at ppm, against cotton aphid: 0.195 ([3]; rundown assay): F (Less than 50); % Control at ppm, against cotton aphid: 0.78 ([3]; 0.78 ppm, rundown assay): C (70-79); % Control at ppm, against cotton aphid: 3.12 ([3]; 3.12 ppm, rundown assay): A (90-100); % Control at ppm, against cotton aphid: 12.5 ([3]; 12.5 ppm, rundown assay): A (90-100); % Control at ppm, against cotton aphid: 50 ([3]; 50 ppm, rundown assay): A (90-100); % Control at ppm, against green peach aphid: 0.049 ([8]; 0.049 ppm, rundown assay, 3 days): F (Less than 50); % Control at ppm, against green peach aphid: 0.195 ([8]; 0.195 ppm, rundown assay, 3 days): E (50-59); % Control at ppm, against green peach aphid: 0.78 ([8]; rundown assay, 3 days): D (60-69); % Control at ppm, against green peach aphid: 3.12 ([8]; rundown assay, 3 days): C (70-79); % Control at ppm, against green peach aphid: 12.5 [8, 10]: A (90-100); % Control at ppm, against green peach aphid: 50 ([8]; 50 ppm, rundown assay, 3 days): A (90-100)
CC[S@](=O)(=NC#N)[C@@H](C)c1ccc(Cl)nc1 [Compound 19]	F (Less than 50)	G (Inactive)	90 to 100	90 to 100	–	–	G (Inactive)	pest or weed control at 200 ppm [7]: 70 to 79%
N#CN=S1(=O)CCC[C@H]1Cc1ccc(Cl)nc1 (stereo partly shown) [Compound 21]	G (Inactive)	G (Inactive)	90 to 100	90 to 100	–	80 to 89	G (Inactive)	–
CCOc1ccc(S(C)(=O)=NC#N)cn1 (stereo not shown) [Compound 42, (6-Ethoxypyridin-3-yl)(methyl)oxido-λ^4-sulfanylidenecyanamide]	G (Inactive)	G (Inactive)	70 to 79	90 to 100	–	–	G (Inactive)	–
CCS(=O)(=NC#N)C(C)c1ccc(Cl)nc1 (stereo not shown) [Compound 18]	G (Inactive)	G (Inactive)	90 to 100	90 to 100	< 50	–	G (Inactive)	pest or weed control at 200 ppm [7]: 80 to 89%
CCS(=O)(CC(C)c1ccc(Cl)nc1)=N[N+](=O)[O-] (stereo not shown) [Compound 38]	G (Inactive)	G (Inactive)	80 to 89	90 to 100	–	< 50	G (Inactive)	–
N#CN=S1(=O)CCCC1c1ccccc1 (stereo not shown) [Compound 22, (1-oxido-2-phenyltetrahydro-1H-11^4-thien-1-ylidene)cyanamide]	G (Inactive)	G (Inactive)	80 to 89	90 to 100	< 50	–	G (Inactive)	–
CC(CS(C)(=O)=N[N+](=O)[O-])c1ccc(Cl)nc1 (stereo not shown) [Compound 4, 2-Chloro-5-(1-methyl-2-{methyl(oxido)[oxido(oxo)hydrazono]-λ^4-sulfanyl}ethyl)pyridine]	G (Inactive)	G (Inactive)	–	< 50	< 50	–	G (Inactive)	–
CC(C)C1CCCS1(=O)=NC#N (stereo not shown) [Compound 32]	G (Inactive)	G (Inactive)	–	80 to 89	50 to 59	–	G (Inactive)	–
